Data reported in publication PMC10975012, “The Active Glucuronide Metabolite of the Brain Protectant IMM-H004 with Poor Blood–Brain Barrier Permeability Demonstrates a High Partition in the Rat Brain via Multiple Mechanisms” (Pharmaceutics, 2024).

Columns and labels:
[1] = molecular target: T1, OATP1A2 (Homo sapiens, UniProt P46721); assay: Uptake in CHO-OATP1A2 overexpressing cells; format: cell-based; conditions: CHO-OATP1A2 vs mock, 10 min; IMM-H004G 10 μmol/L
T1 construct: host or cells: CHO
T1 sequence (P46721 1-670): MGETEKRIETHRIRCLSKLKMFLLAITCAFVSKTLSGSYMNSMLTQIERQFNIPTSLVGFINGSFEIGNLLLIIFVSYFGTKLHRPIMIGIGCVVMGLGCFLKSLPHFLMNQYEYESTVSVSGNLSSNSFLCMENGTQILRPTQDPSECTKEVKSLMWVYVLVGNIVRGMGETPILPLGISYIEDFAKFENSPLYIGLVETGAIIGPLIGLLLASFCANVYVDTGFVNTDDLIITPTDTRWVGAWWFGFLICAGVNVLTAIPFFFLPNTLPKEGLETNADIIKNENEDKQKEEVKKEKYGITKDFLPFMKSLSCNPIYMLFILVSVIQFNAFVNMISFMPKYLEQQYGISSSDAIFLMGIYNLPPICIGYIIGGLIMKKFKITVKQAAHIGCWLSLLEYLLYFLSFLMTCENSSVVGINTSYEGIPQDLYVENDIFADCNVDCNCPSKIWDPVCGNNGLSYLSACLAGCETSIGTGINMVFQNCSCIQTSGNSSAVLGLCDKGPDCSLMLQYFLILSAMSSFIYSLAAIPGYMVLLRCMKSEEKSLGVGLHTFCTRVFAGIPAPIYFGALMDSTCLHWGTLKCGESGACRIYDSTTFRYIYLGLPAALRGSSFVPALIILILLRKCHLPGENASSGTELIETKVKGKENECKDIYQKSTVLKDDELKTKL
Source text: (§1) CHO cells and MDCKⅡ cells were stably transfected with lentiviruses carrying human SCLO1A2 (encoding OATP1A2) and SCLO2B1 (encoding OATP2B1), respectively. Cell transfected with lentiviruses carrying empty vectors served as control. Lentiviral plasmid packages were obtained from OBiO Technology (Shanghai, China), and procedures followed the instructions of the virus manual. Stably transfected cells were routinely grown in a 100 mm dish in DMEM with 10% fetal bovine serum. Prior to the experiments, the seeding density of the overexpressing cells in 24-well plates was 4 × 10^5 cells per well, and the medium was supplemented with 2 mM sodium butyrate for 24 h. The cultured cells were washed twice with prewarmed HBSS after removing the medium and then treated with 10 μmol/L IMM-H004G and 100 μmol/L rifampicin (or an equal amount of solvent dimethyl sulfoxide) for 10 min. After incubation, the cells were washed four times with cold HBSS. Follow-up sample processing procedures were as described in Section 2.3.1. E17βG (5 μmol/L) and rosuvastatin (10 μmol/L) were used as positive substrates in CHO-OATP1A2 and MDCKⅡ-OATP2B1 cells, respectively. The MDCKⅡ-MDR1 cells were previously established by our laboratory.

[2] = molecular target: T2, OATP2B1 (Homo sapiens, UniProt O94956); assay: Uptake in MDCKⅡ-OATP2B1 overexpressing cells; format: cell-based; conditions: MDCKⅡ-OATP2B1 vs mock, 10 min; IMM-H004G 10 μmol/L
T2 construct: host or cells: MDCKII
T2 sequence (O94956 1-709): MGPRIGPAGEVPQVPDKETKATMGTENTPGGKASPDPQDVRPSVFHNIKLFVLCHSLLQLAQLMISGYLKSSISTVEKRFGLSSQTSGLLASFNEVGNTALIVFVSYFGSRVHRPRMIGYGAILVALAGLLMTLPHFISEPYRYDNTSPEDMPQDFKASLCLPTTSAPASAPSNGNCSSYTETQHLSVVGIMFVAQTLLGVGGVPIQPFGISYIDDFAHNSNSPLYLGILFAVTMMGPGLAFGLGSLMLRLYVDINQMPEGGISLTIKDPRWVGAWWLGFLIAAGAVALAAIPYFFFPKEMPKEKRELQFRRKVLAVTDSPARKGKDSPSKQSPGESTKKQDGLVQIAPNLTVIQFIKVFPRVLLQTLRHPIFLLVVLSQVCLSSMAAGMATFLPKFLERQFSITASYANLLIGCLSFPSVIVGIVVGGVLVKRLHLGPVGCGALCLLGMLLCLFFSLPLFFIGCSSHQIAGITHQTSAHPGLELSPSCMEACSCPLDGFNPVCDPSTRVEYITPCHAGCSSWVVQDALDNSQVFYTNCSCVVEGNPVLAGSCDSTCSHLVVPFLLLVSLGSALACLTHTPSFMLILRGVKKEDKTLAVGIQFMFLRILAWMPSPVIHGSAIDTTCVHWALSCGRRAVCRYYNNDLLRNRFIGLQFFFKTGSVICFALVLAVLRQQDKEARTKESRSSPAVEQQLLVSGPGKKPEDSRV
Source text: as §1

[3] = system: hCMEC/D3 cells; assay: In vitro metabolism in human brain cells (hCMEC/D3); format: in vitro ADME; conditions: IMM-H004 1–100 μmol/L
Method: SH-SY5Y, HEB, and hCMEC/D3 cells were utilized to investigate the in vitro metabolism of IMM-H004 and IMM-H004G in the brain. SH-SY5Y and HEB cells were cultured routinely in Dulbecco’s modified Eagle’s medium (DMEM) containing 10% fetal bovine serum and a 100 U/mL penicillin–100 μg/mL streptomycin solution. hCMEC/D3 cells were seeded on collagen type I coated 24-well plates and cultured in EndoGRO™-MV complete medium following the manufacturer’s guidelines. The cells were incubated at 37 °C, with 5% CO2, and were maintained in a humidified environment. Once the confluence reached 70–80%, the cells were digested using a 0.25% trypsin–EDTA solution, centrifuged at 200× g for 5 min, and then resuspended in a fresh culture medium. For each experiment, after seeding and 24 h incubation, the cells were washed twice with a prewarmed culture medium, and then IMM-H004 or IMM-H004G (1–100 μmol/L) dissolved in the culture medium was added. Incubation was carried out at 37 °C for 5 h or 24 h. After incubation, the supernatants were collected. Subsequently, the cells were washed with cold HBSS three times and lysed in a RIPA lysis buffer (Beyotime Inc., Shanghai, China). The concentrations of IMM-H004 and IMM-H004G were determined by liquid chromatography with tandem mass spectrometry (LC-MS/MS).

Row | Compound | uptake increase in OATP1A2-overexpressing cells compared to control cells [1] | uptake increase in OATP2B1-overexpressing cells compared to control cells [2] | production of IMM-H004G from IMM-H004 [3]
1 | COc1cc(OC2OC(C(=O)O)C(O)C(O)C2O)cc2oc(=O)c(N3CCN(C)CC3)c(C)c12 (stereo not drawn) [IMM-H004G] | 9.7 fold | 190 fold | 
2 | COc1cc(O)cc2oc(=O)c(N3CCN(C)CC3)c(C)c12 [IMM-H004] |  |  | not detected
